Patent US20190225650A1, “PEPTIDOMIMETIC MACROCYCLES AND USE THEREOF IN REGULATING HIF1ALPHA” (AILERON THERAPEUTICS, INC., priority 2013, published 2019)
Bridge positions count the residues as written; N and C are the ends. Square brackets hold non-standard residues; d marks the D form. Peptide text beside a SMILES is read from it. R8 = C=CCCCCCC[C@@](C)(N)C(=O)O; R5 = C=CCCC[C@@](C)(N)C(=O)O; S5 = C=CCCC[C@](C)(N)C(=O)O; Nle = CCCC[C@H](N)C(=O)O; Dap = NC[C@H](N)C(=O)O

Test system: HRE-bla ME-180 cells
Experiment: Reporter gene assay (HRE-bla ME-180 HIF reporter, GeneBLAzer)
Format: cell-based, human
Details: for EC50: 24 hour normoxia
Procedure, shortened: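 A FRET β-lactamase readout of HIF transcription was used. After compound treatment in 0.3% DMSO/media under normoxic conditions, 20 μl of 6× LiveBLAzer-FRET B/G (CCF4-AM) substrate was added. Plates sat 3 hr at room temperature in the dark and were read at 409 Ex/460Em and 409Ex/530Em on a Synergy 2. Inhibition was compared against DMSO vehicle controls, with chetomin as positive control.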

Compound | 18 h Avg % max inhibition at top conc (HIF Rptr-24 hrs normoxia) (μM) | EC50
CCCC[C@H](NC(=O)[C@H](CC(C)C)NC(=O)[C@@H](NC(=O)[C@H](CCC(=O)O)NC(=O)[C@H](CCC(=O)O)NC(=O)[C@H](CC(=O)O)NC(=O)[C@@H](NC(=O)[C@H](Cc1ccccc1)NC(C)=O)[C@@H](C)CC)C(C)C)C(=O)N[C@@]1(C)CCCC=CCCC[C@@](C)(C(=O)N[C@@H](CCCC)C(=O)NCC(=O)N[C@@H](CC(C)C)C(=O)N[C@@H](CC(=O)O)C(=O)N[C@@H](CCCNC(=N)N)C(=O)N[C@H](C(N)=O)[C@@H](C)CC)NC(=O)[C@H]([C@@H](C)CC)NC(=O)[C@H](C(C)C)NC(=O)[C@H](CC(C)C)NC1=O [SP-21] (Ac-FIDEEVL[Nle][S5]LVI[S5][Nle]GLDRI-NH2; staple 9-13) | ++++ (≥50: ++++) | 5 to 15 µM
CCCC[C@H](NC(=O)[C@H](CC(C)C)NC(=O)[C@H](CN)NC(=O)[C@H](CCC(=O)O)NC(=O)[C@H](CCC(=O)O)NC(=O)[C@H](CC(=O)O)NC(=O)[C@@H](NC(=O)[C@H](Cc1ccccc1)NC(C)=O)[C@@H](C)CC)C(=O)N[C@@]1(C)CCCC=CCCC[C@@](C)(C(=O)N[C@@H](CCCC)C(=O)N[C@@H](C)C(=O)N[C@@H](CC(C)C)C(=O)N[C@@H](CC(=O)O)C(=O)N[C@@H](CCCNC(=N)N)C(=O)N[C@H](C(N)=O)[C@@H](C)CC)NC(=O)[C@H]([C@@H](C)CC)NC(=O)[C@H](C(C)C)NC(=O)[C@H](CC(C)C)NC1=O [SP-64] (Ac-FIDEE[Dap]L[Nle][S5]LVI[S5][Nle]ALDRI-NH2; staple 9-13) | + (<10: +) | > 30 µM
CCCC[C@H](NC(=O)[C@H](CC(C)C)NC(=O)[C@@H](NC(=O)[C@H](CCC(=O)O)NC(=O)[C@H](CCC(=O)O)NC(=O)[C@H](CO)NC(=O)[C@@H](NC(=O)[C@H](Cc1ccccc1)NC(C)=O)[C@@H](C)CC)C(C)C)C(=O)N[C@@]1(C)CCCC=CCCC[C@@](C)(C(=O)N[C@@H](CCCC)C(=O)N[C@@H](C)C(=O)N[C@@H](CC(C)C)C(=O)N[C@@H](CC(=O)O)C(=O)N[C@@H](CCCNC(=N)N)C(=O)N[C@H](C(N)=O)[C@@H](C)CC)NC(=O)[C@H]([C@@H](C)CC)NC(=O)[C@H](C(C)C)NC(=O)[C@H](CC(C)C)NC1=O [SP-46] (Ac-FISEEVL[Nle][S5]LVI[S5][Nle]ALDRI-NH2; staple 9-13) | +++ (≤25 but <50: +++) | 15 to 30 µM
CCCC[C@H](NC(=O)[C@H](CC(C)C)NC(=O)[C@@H](NC(=O)[C@H](CCC(=O)O)NC(=O)[C@H](CCC(=O)O)NC(=O)[C@H](CC(=O)O)NC(=O)[C@@H](NC(=O)[C@H](CO)NC(C)=O)[C@@H](C)CC)C(C)C)C(=O)N[C@@]1(C)CCCC=CCCC[C@@](C)(C(=O)N[C@@H](CCCC)C(=O)N[C@@H](C)C(=O)N[C@@H](CC(C)C)C(=O)N[C@@H](CC(=O)O)C(=O)N[C@@H](CCCNC(=N)N)C(=O)N[C@H](C(N)=O)[C@@H](C)CC)NC(=O)[C@H]([C@@H](C)CC)NC(=O)[C@H](C(C)C)NC(=O)[C@H](CC(C)C)NC1=O [SP-44] (Ac-SIDEEVL[Nle][S5]LVI[S5][Nle]ALDRI-NH2; staple 9-13) | +++ (≤25 but <50: +++) | 15 to 30 µM
CCCC[C@H](NC(=O)[C@H](CC(C)C)NC(=O)[C@@H](NC(=O)[C@H](CCC(=O)O)NC(=O)[C@H](CCC(=O)O)NC(=O)[C@H](CC(=O)O)NC(=O)[C@@H](NC(=O)[C@H](Cc1ccccc1)NC(C)=O)[C@@H](C)CC)C(C)C)C(=O)N[C@]1(C)CCCC=CCCC[C@](C)(C(=O)N[C@@H](CCCC)C(=O)N[C@@H](C)C(=O)N[C@@H](CC(C)C)C(=O)N[C@@H](CC(=O)O)C(=O)N[C@@H](CCCNC(=N)N)C(=O)N[C@H](C(N)=O)[C@@H](C)CC)NC(=O)[C@H]([C@@H](C)CC)NC(=O)[C@H](C(C)C)NC(=O)[C@H](CC(C)C)NC1=O [SP-296] (Ac-FIDEEVL[Nle][R5]LVI[R5][Nle]ALDRI-NH2; staple 9-13) | ++++ (≥50: ++++) | ≤ 5 µM
CCCC[C@H](NC(=O)[C@H](CC(C)C)NC(=O)[C@@H](NC(=O)[C@H](CCC(=O)O)NC(=O)[C@H](CCC(=O)O)NC(=O)[C@H](CC(=O)O)NC(=O)[C@@H](NC(=O)[C@H](Cc1ccccc1)NC(C)=O)[C@@H](C)CC)C(C)C)C(=O)N[C@@]1(C)CCCC=CCCC[C@@](C)(C(=O)N[C@@H](CCCC)C(=O)N[C@@H](C)C(=O)N[C@@H](CC(C)C)C(=O)N[C@@H](CC(=O)O)C(=O)N[C@@H](CCCNC(=N)N)C(=O)N[C@H](C(N)=O)[C@@H](C)CC)NC(=O)[C@H]([C@@H](C)CC)NC(=O)[C@H](C)NC(=O)[C@H](CC(C)C)NC1=O [SP-18] (Ac-FIDEEVL[Nle][S5]LAI[S5][Nle]ALDRI-NH2; staple 9-13) | ++++ (≥50: ++++) | 5 to 15 µM
CCCC[C@H](NC(=O)[C@]1(C)CCCC=CCCC[C@](C)(NC(=O)[C@H](CO)NC(=O)[C@H](CC(C)C)NC(=O)[C@@H](NC(=O)[C@H](CCC(=O)O)NC(=O)[C@H](CCC(=O)O)NC(=O)[C@H](CC(=O)O)NC(=O)[C@@H](NC(=O)[C@H](Cc2ccccc2)NC(C)=O)[C@@H](C)CC)C(C)C)C(=O)N[C@@H](CC(C)C)C(=O)N[C@@H](C(C)C)C(=O)N[C@@H]([C@@H](C)CC)C(=O)N1)C(=O)N[C@@H](C)C(=O)N[C@@H](CC(C)C)C(=O)N[C@@H](CC(=O)O)C(=O)N[C@@H](CCCNC(=N)N)C(=O)N[C@H](C(N)=O)[C@@H](C)CC [SP-50] (Ac-FIDEEVLS[S5]LVI[S5][Nle]ALDRI-NH2; staple 9-13) | ++++ (≥50: ++++) | ≤ 5 µM
CC[C@H](C)[C@H](NC(=O)[C@H](Cc1ccccc1)NC(C)=O)C(=O)N[C@@H](CC(=O)O)C(=O)N[C@@H](CCC(=O)O)C(=O)N[C@@H](CCC(=O)O)C(=O)N[C@H](C(=O)N[C@@H](CC(C)C)C(=O)N[C@@H](CCSC)C(=O)N[C@@]1(C)CCCC=CCCC[C@@](C)(C(=O)N[C@@H](CCSC)C(=O)N[C@@H](C)C(=O)N[C@@H](CC(C)C)C(=O)N[C@@H](CC(=O)O)C(=O)N[C@@H](CCCNC(=N)N)C(=O)N[C@H](C(=O)N[C@@H](CCCCN)C(=O)N[C@@H](CCC(=O)O)C(=O)N[C@@H](CC(C)C)C(=O)N2CCC[C@H]2C(=O)N[C@@H](CCC(=O)O)C(=O)N[C@@H](CC(C)C)C(=O)N[C@@H](Cc2c[nH]c3ccccc23)C(=O)N[C@@H](CC(C)C)C(N)=O)[C@@H](C)CC)NC(=O)[C@H]([C@@H](C)CC)NC(=O)[C@H](C(C)C)NC(=O)[C@H](CC(C)C)NC1=O)C(C)C [SP-3] (Ac-FIDEEVLM[S5]LVI[S5]MALDRIKELPELWL-NH2; staple 9-13) | +++ (≤25 but <50: +++) | > 30 µM
CCCC[C@H](NC(=O)[C@H](CC(C)C)NC(=O)[C@@H](NC(=O)[C@H](CCC(=O)O)NC(=O)[C@H](CCC(=O)O)NC(=O)[C@H](CC(=O)O)NC(=O)[C@@H](NC(=O)[C@H](Cc1ccccc1)NC(C)=O)[C@@H](C)CC)C(C)C)C(=O)N[C@@]1(C)CCCC=CCCC[C@@](C)(C(=O)N[C@@H](CCCC)C(=O)N[C@@H](C)C(=O)N[C@@H](CC(C)C)C(=O)N[C@@H](CC(=O)O)C(=O)N[C@@H](CCCNC(=N)N)C(=O)N[C@H](C(N)=O)[C@@H](C)CC)NC(=O)[C@H](C)NC(=O)[C@H](C(C)C)NC(=O)[C@H](CC(C)C)NC1=O [SP-19] (Ac-FIDEEVL[Nle][S5]LVA[S5][Nle]ALDRI-NH2; staple 9-13) | +++ (≤25 but <50: +++) | 5 to 15 µM
CC[C@H](C)[C@H](NC(=O)[C@H](CCCNC(=N)N)NC(=O)[C@H](CC(=O)O)NC(=O)[C@H](CC(C)C)NC(=O)CNC(=O)[C@H](CCSC)NC(=O)[C@]1(C)CCCC=CCCC[C@](C)(NC(=O)[C@H](CCSC)NC(=O)[C@H](CC(C)C)NC(=O)[C@@H](NC(=O)[C@H](CCC(=O)O)NC(=O)[C@H](CCC(=O)O)NC(=O)[C@H](CC(=O)O)NC(C)=O)C(C)C)C(=O)N[C@@H](CC(C)C)C(=O)N[C@@H](C(C)C)C(=O)N[C@@H]([C@@H](C)CC)C(=O)N1)C(=O)N[C@@H](CCCCN)C(=O)N[C@@H](CCC(=O)O)C(=O)N[C@@H](CC(C)C)C(=O)N1CCC[C@H]1C(=O)N[C@@H](CCC(=O)O)C(=O)N[C@@H](CC(C)C)C(=O)N[C@@H](Cc1c[nH]c2ccccc12)C(=O)N[C@@H](CC(C)C)C(N)=O [SP-87] (Ac-DEEVLM[S5]LVI[S5]MGLDRIKELPELWL-NH2; staple 7-11) | ++++ (≥50: ++++) | 15 to 30 µM
CC[C@H](C)[C@H](NC(=O)[C@H](Cc1ccccc1)NC(C)=O)C(=O)N[C@@H](CC(=O)O)C(=O)N[C@@H](CCC(=O)O)C(=O)N[C@]1(C)CCCCCCC=CCCC[C@@](C)(C(=O)N[C@@H](CCC(=O)O)C(=O)N[C@@H](CCSC)C(=O)NCC(=O)N[C@@H](CC(C)C)C(=O)N[C@@H](CC(=O)O)C(=O)N[C@@H](CCCNC(=N)N)C(=O)N[C@H](C(=O)N[C@@H](CCCCN)C(=O)N[C@@H](CCC(=O)O)C(=O)N[C@@H](CC(C)C)C(=O)N2CCC[C@H]2C(=O)N[C@@H](CCC(=O)O)C(=O)N[C@@H](CC(C)C)C(=O)N[C@@H](Cc2c[nH]c3ccccc23)C(=O)N[C@@H](CC(C)C)C(N)=O)[C@@H](C)CC)NC(=O)[C@H](C(C)C)NC(=O)[C@H](CC(C)C)NC(=O)[C@H](CO)NC(=O)[C@H](CCSC)NC(=O)[C@H](CC(C)C)NC(=O)[C@H](C(C)C)NC1=O [SP-82] (Ac-FIDE[R8]VLMSLV[S5]EMGLDRIKELPELWL-NH2; staple 5-12) | + (<10: +) | > 30 µM
CCCC[C@H](NC(=O)[C@H](CC(C)C)NC(=O)[C@H](CC(=O)O)NC(=O)[C@H](CCC(=O)O)NC(=O)[C@H](CCC(=O)O)NC(=O)[C@H](CC(=O)O)NC(=O)[C@@H](NC(=O)[C@H](Cc1ccccc1)NC(C)=O)[C@@H](C)CC)C(=O)N[C@@]1(C)CCCC=CCCC[C@@](C)(C(=O)N[C@@H](CCCC)C(=O)N[C@@H](C)C(=O)N[C@@H](CC(C)C)C(=O)N[C@@H](CC(=O)O)C(=O)N[C@@H](CCCNC(=N)N)C(=O)N[C@H](C(N)=O)[C@@H](C)CC)NC(=O)[C@H]([C@@H](C)CC)NC(=O)[C@H](C(C)C)NC(=O)[C@H](CC(C)C)NC1=O [SP-32] (Ac-FIDEEDL[Nle][S5]LVI[S5][Nle]ALDRI-NH2; staple 9-13) | +++ (≤25 but <50: +++) | 15 to 30 µM
